Test results as given in patent US6426369B1, “Oxethazaine as antimicrobial agent” (Eisai Co., Ltd., priority 1997, dated 2002).
Values after ≈ are worked out from the molar mass of the structure shown. Where two headings read alike, the source gives them in different places.

Key:
[1] = system: H. pylori; assay: Antimicrobial activity test 1: anti-H. pylori activity of a single compound (agar plate method); type: cell-based, Helicobacter pylori; conditions: for MIC: Helicobacter pylori
[2] = system: H. pylori; assay: Antimicrobial activity test 2: time for sterilizing H. pylori (viable cell count in Brucella broth); type: cell-based, Helicobacter pylori
Method: A solution of the test compound was added to Brucella broth containing 5% fetal bovine serum, cultured under slightly aerobic conditions at 37° C., and the vial microbe cell number in Brucella agar containing 7% horse blood was counted at predetermined intervals. The above compound (1) was dissolved in a 1% aqueous solution of […] (DMSO), and the above compound (2) was dissolved in water to prepare a solution of each test compound. “cfu” in Tables and Figures means “colony forming unit”.

[3] = system: H. pylori; assay: Antimicrobial activity test 5: oxethazaine in combination with compound (IV) (lansoprazole), checker board method; type: cell-based, Helicobacter pylori
Text: The effect of oxethazaine used in combination with compound (IV) (lansoprazole) was examined in the same manner as in antimicrobial activity test 1, using the checker board method.
Hereinafter, the results are shown for each strain in the same manner as in antimicrobial activity test 3.

[4] = system: Gram-positive bacteria; assay: Antimicrobial activity (MIC) of oxethazaine and structure analogues against Gram-positive bacteria; type: cell-based
[5] = Acute toxicity test, single oral dose, mice; conditions: Slc:ICR, mouse, in vivo, read-out: LD50 (Oral administration)
Method: A toxicity test was conducted by orally administering a single dose into 7- to 8-weeks old Slc:SD rats and Slc:ICR mice, each group consisting of 5 females and 5 males (medium; physiological saline).

CN(C(=O)CN(CCO)CC(=O)N(C)C(C)(C)Cc1ccccc1)C(C)(C)Cc1ccccc1 [Oxethazaine, 2,2′-[(2-hydroxyethyl)amino]bis[N-(1,1-dimethyl-2-phenylethyl)-N-methylacetamide]]
MIC ([1]; NCTC11637, strain NCTC11637, read-out: MIC (growth inhibition)): 25 µg/mL (≈ 53.5 µM) | MIC ([1]; NCTC11639, strain NCTC11639, read-out: MIC (growth inhibition)): 50 µg/mL (≈ 107 µM) | MIC ([1]; NCTC11916, strain NCTC11916, read-out: MIC (growth inhibition)): 25 µg/mL (≈ 53.5 µM) | MIC ([1]; strain 89-355, read-out: MIC (growth inhibition)): 12.5 µg/mL (≈ 26.7 µM) | MIC ([1]; strain 89-357, read-out: MIC (growth inhibition)): 25 µg/mL (≈ 53.5 µM) | MIC ([1]; strain 89-360 (1), read-out: MIC (growth inhibition)): 25 µg/mL (≈ 53.5 µM) | MIC ([1]; strain 89-360, read-out: MIC (growth inhibition)): 25 µg/mL (≈ 53.5 µM) | MIC ([1]; strain 90-384, read-out: MIC (growth inhibition)): 25 µg/mL (≈ 53.5 µM) | MIC ([1]; strain 90-388 (1), read-out: MIC (growth inhibition)): 25 µg/mL (≈ 53.5 µM) | MIC ([1]; strain 90-388, read-out: MIC (growth inhibition)): 25 µg/mL (≈ 53.5 µM) | MIC ([1]; strain 90-390 (1), read-out: MIC (growth inhibition)): 25 µg/mL (≈ 53.5 µM) | MIC ([1]; strain 90-390, read-out: MIC (growth inhibition)): 25 µg/mL (≈ 53.5 µM) | MIC ([1]; strain 90-392, read-out: MIC (growth inhibition)): 25 µg/mL (≈ 53.5 µM) | MIC ([1]; strain 90-397 (first line, r19), read-out: MIC (growth inhibition)): 25 µg/mL (≈ 53.5 µM) | MIC ([1]; strain 90-397 (second line, r25), read-out: MIC (growth inhibition)): 25 µg/mL (≈ 53.5 µM) | MIC ([1]; strain 90-407 (1), read-out: MIC (growth inhibition)): 25 µg/mL (≈ 53.5 µM) | MIC ([1]; strain 90-407, read-out: MIC (growth inhibition)): 25 µg/mL (≈ 53.5 µM) | MIC ([1]; strain 90-411, read-out: MIC (growth inhibition)): 25 µg/mL (≈ 53.5 µM) | MIC ([1]; strain 90-414 (1), read-out: MIC (growth inhibition)): 25 µg/mL (≈ 53.5 µM) | MIC ([1]; strain 90-414, read-out: MIC (growth inhibition)): 25 µg/mL (≈ 53.5 µM) | MIC ([1]; strain 90-428, read-out: MIC (growth inhibition)): 25 µg/mL (≈ 53.5 µM) | MIC ([1]; strain EH12, read-out: MIC (growth inhibition)): 25 µg/mL (≈ 53.5 µM) | MIC ([1]; strain EH13, read-out: MIC (growth inhibition)): 25 µg/mL (≈ 53.5 µM) | MIC ([1]; strain EH16, read-out: MIC (growth inhibition)): 25 µg/mL (≈ 53.5 µM) | MIC ([1]; strain EH26, read-out: MIC (growth inhibition)): 25 µg/mL (≈ 53.5 µM) | MIC ([1]; summary of the strains of antimicrobial activity test 1, read-out: MIC for each strain): ~25 µg/mL (≈ 53.5 µM) | anti-H. pylori activity ([1]; conclusion from test 1): excellent anti-H. pylori activity | Viable microbe cell number ([2]; EH12, 1 MIC, 0 h): 5.60 log10cfu/ml | Viable microbe cell number ([2]; EH12, 1 MIC, 3 h): 5.67 log10cfu/ml | Viable microbe cell number ([2]; EH12, 1 MIC, 6 h): 5.61 log10cfu/ml | Viable microbe cell number ([2]; EH12, 1 MIC, 9 h): 5.68 log10cfu/ml | Viable microbe cell number ([2]; EH12, 1 MIC, 24 h): 4.51 log10cfu/ml | Viable microbe cell number ([2]; EH12, 2 MIC, 0 h): 5.60 log10cfu/ml | Viable microbe cell number ([2]; EH12, 2 MIC, 3 h): 1.78 log10cfu/ml | Viable microbe cell number ([2]; EH12, 2 MIC, 6 h): 0 log10cfu/ml | Viable microbe cell number ([2]; EH12, 2 MIC, 9 h): 0 log10cfu/ml | Viable microbe cell number ([2]; EH12, 2 MIC, 24 h): 0 log10cfu/ml | Viable microbe cell number ([2]; EH12, 4 MIC, 0 h): 5.60 log10cfu/ml | Viable microbe cell number ([2]; EH12, 4 MIC, 3 h): 0 log10cfu/ml | Viable microbe cell number ([2]; EH12, 4 MIC, 6 h): 0 log10cfu/ml | Viable microbe cell number ([2]; EH12, 4 MIC, 9 h): 0 log10cfu/ml | Viable microbe cell number ([2]; EH12, 4 MIC, 24 h): 0 log10cfu/ml | Viable microbe cell number ([2]; EH12, ½ MIC, 0 h): 5.60 log10cfu/ml | Viable microbe cell number ([2]; EH12, ½ MIC, 3 h): 5.77 log10cfu/ml | Viable microbe cell number ([2]; EH12, ½ MIC, 6 h): 5.19 log10cfu/ml | Viable microbe cell number ([2]; EH12, ½ MIC, 9 h): 5.71 log10cfu/ml | Viable microbe cell number ([2]; EH12, ½ MIC, 24 h): 5.27 log10cfu/ml | sterilization curve ([2]; FIGS. 1 to 4, compared with the antibiotic): rapidly dropping sterilization curve | Viable microbe cell number ([2]; NCTC 11637, 1 MIC, 0 h): 5.70 log10cfu/ml | Viable microbe cell number ([2]; NCTC 11637, 1 MIC, 3 h): 5.24 log10cfu/ml | Viable microbe cell number ([2]; NCTC 11637, 1 MIC, 6 h): 4.98 log10cfu/ml | Viable microbe cell number ([2]; NCTC 11637, 1 MIC, 9 h): 4.64 log10cfu/ml | Viable microbe cell number ([2]; NCTC 11637, 1 MIC, 24 h): 4.30 log10cfu/ml | Viable microbe cell number ([2]; NCTC 11637, 2 MIC, 0 h): 5.70 log10cfu/ml | Viable microbe cell number ([2]; NCTC 11637, 2 MIC, 3 h): 1.90 log10cfu/ml | Viable microbe cell number ([2]; NCTC 11637, 2 MIC, 6 h): 0 log10cfu/ml | Viable microbe cell number ([2]; NCTC 11637, 2 MIC, 9 h): 0 log10cfu/ml | Viable microbe cell number ([2]; NCTC 11637, 2 MIC, 24 h): 0 log10cfu/ml | Viable microbe cell number ([2]; NCTC 11637, 4 MIC, 0 h): 5.70 log10cfu/ml | Viable microbe cell number ([2]; NCTC 11637, 4 MIC, 3 h): 0 log10cfu/ml | Viable microbe cell number ([2]; NCTC 11637, 4 MIC, 6 h): 0 log10cfu/ml | Viable microbe cell number ([2]; NCTC 11637, 4 MIC, 9 h): 0 log10cfu/ml | Viable microbe cell number ([2]; NCTC 11637, 4 MIC, 24 h): 0 log10cfu/ml | Viable microbe cell number ([2]; NCTC 11637, ½ MIC, 0 h): 5.70 log10cfu/ml | Viable microbe cell number ([2]; NCTC 11637, ½ MIC, 3 h): 5.48 log10cfu/ml | Viable microbe cell number ([2]; NCTC 11637, ½ MIC, 6 h): 5.27 log10cfu/ml | Viable microbe cell number ([2]; NCTC 11637, ½ MIC, 9 h): 5.11 log10cfu/ml | Viable microbe cell number ([2]; NCTC 11637, ½ MIC, 24 h): 5.51 log10cfu/ml | Viable microbe cell number ([2]; NCTC 11916, 1 MIC, 0 h): 5.72 log10cfu/ml | Viable microbe cell number ([2]; NCTC 11916, 1 MIC, 3 h): 6.04 log10cfu/ml | Viable microbe cell number ([2]; NCTC 11916, 1 MIC, 6 h): 5.92 log10cfu/ml | Viable microbe cell number ([2]; NCTC 11916, 1 MIC, 9 h): 5.84 log10cfu/ml | Viable microbe cell number ([2]; NCTC 11916, 1 MIC, 24 h): 4.67 log10cfu/ml | Viable microbe cell number ([2]; NCTC 11916, 2 MIC, 0 h): 5.77 log10cfu/ml | Viable microbe cell number ([2]; NCTC 11916, 2 MIC, 3 h): 3.63 log10cfu/ml | Viable microbe cell number ([2]; NCTC 11916, 2 MIC, 6 h): 2.83 log10cfu/ml | Viable microbe cell number ([2]; NCTC 11916, 2 MIC, 9 h): 2.61 log10cfu/ml | Viable microbe cell number ([2]; NCTC 11916, 2 MIC, 24 h): 0 log10cfu/ml | Viable microbe cell number ([2]; NCTC 11916, 4 MIC, 0 h): 5.77 log10cfu/ml | Viable microbe cell number ([2]; NCTC 11916, 4 MIC, 3 h): 0 log10cfu/ml | Viable microbe cell number ([2]; NCTC 11916, 4 MIC, 6 h): 0 log10cfu/ml | Viable microbe cell number ([2]; NCTC 11916, 4 MIC, 9 h): 0 log10cfu/ml | Viable microbe cell number ([2]; NCTC 11916, 4 MIC, 24 h): 0 log10cfu/ml | Viable microbe cell number ([2]; NCTC 11916, ½ MIC, 0 h): 5.77 log10cfu/ml | Viable microbe cell number ([2]; NCTC 11916, ½ MIC, 3 h): 5.70 log10cfu/ml | Viable microbe cell number ([2]; NCTC 11916, ½ MIC, 6 h): 6.35 log10cfu/ml | Viable microbe cell number ([2]; NCTC 11916, ½ MIC, 9 h): 6.32 log10cfu/ml | Viable microbe cell number ([2]; NCTC 11916, ½ MIC, 24 h): 6.44 log10cfu/ml | effect of combined use ([3]; strain 90-392): 90-392 (additive effect) | effect of combined use ([3]; strain 90-397): 90-397 (synergism) | effect of combined use ([3]; strain 90-414): 90-414 (synergism) | effect of combined use ([3]; strain 90-414(1)): 90-414(1) (synergism) | MIC ([4]; Enterococcus faecalis, E. faecalis RIMD 3116001): 25 µg/mL (≈ 53.5 µM) | MIC ([4]; Staphylococcus aureus, FDA209, S. aureus FDA 209-P): 12.5 µg/mL (≈ 26.7 µM) | MIC ([4]; Staphylococcus epidermidis, ATCC12228, S. epidermidis ATCC 12228): 6.25 µg/mL (≈ 13.4 µM) | effect on Gram-positive bacteria ([4]; conclusion): excellent effect | LD50 ([5]; female, Mouse ♀): ≥ 1000 mg/kg | LD50 ([5]; male, Mouse ♂): 1230 mg/kg
